Source: patent publication US20110027324A1, “O-DESMETHYL-V[…] TREATING MAJOR DEPRESSIVE DISORDER” (Wyeth LLC, priority 2007, published 2011)

Columns and labels:
[1] = test system: subjects with a primary diagnosis of MDD; assay: MDD Study No. 1: safety evaluation (AEs, DESS, laboratory, vital signs, ECG); type: in vivo, human; details: for subjects with AEs as reason for study discontinuation: double-blind on-therapy period, placebo 3%; for subjects reporting serious or noteworthy AEs: none in placebo; for subjects with AEs of clinical importance: placebo 4
Description: On study day −1 (baseline), eligible subjects were randomly assigned to 1 of 2 fixed doses of ODV (50 or 100 mg/day) or to placebo for the 8-week double-blind treatment period. A 7-day taper period after the end of double-blind treatment was recommended but may have been omitted, shortened, or lengthened at the discretion of the investigator. Subjects assigned to the ODV 50 mg dose group received their maintenance dose beginning on study day 1 and continued this regimen until study day 56 or early withdrawal. For the taper period (days 1 through 7 after the end of the double-blind treatment period), they received 0 mg. Subjects assigned to the ODV 100 mg dose group were titrated to their maintenance dose. On study days 1 through 7 they received ODV 50 mg/day. Beginning on study day 8, they received their assigned dose of ODV 100 mg/day and continued on this regimen until study day 56 or early withdrawal. For the taper period (days 1 through 7 after the end of the double-blind treatment period), they received ODV 50 mg/day. Subjects assigned to placebo received their maintenance dose (0 mg) from study day 1 through day 56 or early withdrawal, and also received 0 mg during the taper period.
The safety of the two doses was determined using the following assessments: monitoring of adverse events (AEs), withdrawal because of AEs, concomitant medications, physical examinations, standard 12-lead electrocardiograms (ECGs), vital signs (supine and standing pulse rate and blood pressure (BP); body weight), laboratory determinations (hematology, blood chemistry, and urinalysis; free thyroxine index, including total thyroxine and triiodothyronine, and the β-HCG), and the Discontinuation-Emergent Signs and Symptoms (DESS) checklist.

[2] = test system: norepinephrine and serotonin uptake; details: Klamerus et al., J. Clin. Pharmacol. 32:716-724 (1992); cited from earlier work
[3] = test system: subjects with a primary diagnosis of MDD; assay: MDD Study No. 3: safety evaluation (discontinuations, AEs); type: in vivo, human; details: count; for Adverse Event Abnormal Dreams, subjects / Adverse Event Vomiting, subjects: placebo 3 (2); for Adverse Event Constipation, subjects: placebo 4 (3); for Adverse Event Anorexia, subjects / Adverse Event Flu Syndrome, subjects: placebo 5 (3); for Adverse Event Asthenia, subjects / Adverse Event Insomnia, subjects: placebo 6 (4); for Adverse Event Somnolence, subjects: placebo 8 (5); for Adverse Event Nausea, subjects: placebo 14 (9)
Description: The safety of the two doses was determined using the same assessments as in Example 1.

[4] = test system: subjects with a primary diagnosis of MDD; assay: MDD Study No. 2: safety evaluation (AEs, DESS, laboratory); type: in vivo, human; details: for subjects with AEs as reason for discontinuation: on-therapy period, placebo 3%
Description: The safety of the two doses was determined using the same assessments as in Example 1. […] Headache was the only TPAE with an incidence≧5% in the placebo group.
The DESS checklist was used to evaluate symptoms that first occurred, or that worsened, during the taper period (the 7-day period after the end of the double-blind treatment period). During this 7-day period, doses of ODV were tapered to 0 mg for subjects in the 50 mg group, and to 50 mg for subjects in the 100 mg group. The DESS checklist was administered to 420 of the 423 subjects who had completed at least 53 days of on-therapy treatment.

[5] = 50 mg group, number of subjects
[6] = 100 mg group, number of subjects
[7] = all subjects, 50 and 100 mg/day

CN(C)CC(c1ccc(O)cc1)C1(O)CCCCC1 (stereo not drawn) [ODV, 1-[2-(dimethylamino)-1-(4-phenol)ethyl]-cyclohexanol]
most common (incidence≧5%) taper/poststudy-emergent AEs ([1]; 50 mg group): diarrhea, nausea, abnormal dreams, dizziness, and hostility | subjects with AEs as reason for study discontinuation ([1]; 50 mg group, 151 subjects): 3% | p-value, mean DESS scores compared with placebo ([1]; 50 mg group, first week of the taper period): 0.001 | subjects with clinically important AE hypertension [1, 5]: 2 | subjects with clinically important AE hypotension [1, 5]: 2 | subjects with laboratory values considered clinically important by the medical monitor [1, 5]: 2 | subjects reporting serious or noteworthy AEs [1, 5]: 5 | subjects with AEs of clinical importance [1, 5]: 13 | subjects with AEs as reason for study discontinuation ([1]; 100 mg group, 148 subjects): 7% | subjects with clinically important AE hypertension [1, 6]: 1 | subjects with laboratory values considered clinically important by the medical monitor [1, 6]: 3 | subjects reporting serious or noteworthy AEs [1, 6]: 4 | subjects with AEs of clinical importance [1, 6]: 10 | subjects with clinically important vital signs results ([1]; ODV treated subjects, both doses, 3 elevated supine BP, 1 postural hypotension): four | clinically important findings for ECGs or ECG-related AEs [1, 7]: None of the subjects had clinically important findings for ECGs | inhibition of norepinephrine and serotonin uptake [2]: has been shown to inhibit norepinephrine and serotonin uptake | Discontinued, reason Adverse Event, subjects ([3]; 50 mg, n = 148): 8 (5) | Adverse Event Abnormal Dreams, subjects ([3]; 50 mg, n = 148): 5 (3) | Adverse Event Vomiting, subjects ([3]; 50 mg, n = 148): 2 (1) | Adverse Event Constipation, subjects ([3]; 50 mg, n = 148): 9 (6) | Adverse Event Anorexia, subjects ([3]; 50 mg, n = 148): 14 (10) | Adverse Event Flu Syndrome, subjects ([3]; 50 mg, n = 148): 6 (4) | Adverse Event Asthenia, subjects ([3]; 50 mg, n = 148): 12 (8) | Adverse Event Insomnia, subjects ([3]; 50 mg, n = 148): 20 (14) | Adverse Event Somnolence, subjects ([3]; 50 mg, n = 148): 14 (10) | Adverse Event Nausea, subjects ([3]; 50 mg, n = 148): 33 (22) | Discontinued, reason Adverse Event, subjects ([3]; 100 mg, n = 150): 11 (7) | Adverse Event Abnormal Dreams, subjects ([3]; 100 mg, n = 150): 4 (3) | Adverse Event Vomiting, subjects ([3]; 100 mg, n = 150): 6 (4) | Adverse Event Constipation, subjects ([3]; 100 mg, n = 150): 10 (7) | Adverse Event Anorexia, subjects ([3]; 100 mg, n = 150): 14 (9) | Adverse Event Flu Syndrome, subjects ([3]; 100 mg, n = 150): 10 (7) | Adverse Event Asthenia, subjects ([3]; 100 mg, n = 150): 18 (12) | Adverse Event Insomnia, subjects ([3]; 100 mg, n = 150): 26 (17) | Adverse Event Somnolence, subjects ([3]; 100 mg, n = 150): 18 (12) | Adverse Event Nausea, subjects ([3]; 100 mg, n = 150): 35 (23) | incidence of nausea leading to discontinuation ([4]; 50 mg group): 1.2% | incidence of sweating leading to discontinuation ([4]; 50 mg group): 1.2% | incidence of vomiting leading to discontinuation ([4]; 50 mg group): 1.2% | most common (incidence≧5%) taper/poststudy-emergent AEs ([4]; 50 mg group): headache, nausea, dizziness, and insomnia | subjects with clinically important elevated SGPT/ALT levels ([4]; 50 mg group): another subject | p-value, mean DESS scores in comparison with placebo ([4]; 50 mg group, during the 7-day taper period): 0.001 | subjects with clinically important increased total cholesterol levels [4, 5]: 1 | subjects with clinically important elevated SGOT/AST levels ([4]; 50 mg group, number of subjects, placebo 1): 1 | subjects with AEs as reason for discontinuation ([4]; 50 mg group): 5% | incidence of anorgasmia in men leading to discontinuation ([4]; 100 mg group): 2.1% | incidence of asthenia leading to discontinuation ([4]; 100 mg group): 1.3% | incidence of headache leading to discontinuation ([4]; 100 mg group): 1.3% | incidence of nausea leading to discontinuation ([4]; 100 mg group): 3.8% | most common (incidence≧5%) TPAEs ([4]; 100 mg group): headache, nausea, depression, dizziness, and vertigo | subjects with AEs as reason for discontinuation ([4]; 100 mg group): 7% | p-value, mean DESS in comparison with placebo ([4]; 100 mg group, week after the 7-day taper period): 0.017 | SAEs during the on-therapy period [4, 7]: None of the subjects had SAEs during the on-therapy period | deaths during the study [4, 7]: No deaths occurred during this study
